Reference: patent publication US20140045807A2, “THE USE OF 3-METHOXY-PREGNENOLONE FOR THE PREPARATION OF A DRUG FOR TREATING A TRAUMATIC BRAIN INJURY” (priority 2004, published 2014)

Columns and labels:
[1] = system: microtubule-associated MAP2 in PC12 cells; assay: Immunolabeling of microtubule-associated MAP2 in PC12 cells; format: cell-based, rat; conditions: 20 μM, NGF 10 ng/ml (FIG. 4)
Source text: They were fixed and exposed to anti-MAP2 antibodies that reveal microtubule-associated MAP2 exclusively.
To test the effect of selected molecules on neuritic growth, we first used the PC12 line, which has long been employed in neurobiological research. In the presence of NGF (nerve growth factor), the cells of this line, which arise from a rat pheochromocytoma, form neuritic extensions containing MAP-associated microtubules. The growth of these elongations is stimulated by the addition of PREG. […] This neurite growth accompanies the stimulation by 43-B of the association of MAP2 to the microtubules (FIG. 4).

[2] = system: Sprague Dawley rats in the FST; assay: Forced swimming test (FST); format: in vivo, rat; conditions: 10 mg/kg subcutaneously, 24, 5, 1 h before testing
Source text: (A) 3-methoxy-PREG (43B) decreased rat immobility in the FST showing antidepressant activity. Results are expressed as mean±SEM (n=6-14). One-way ANOVA: Treatment (F5, 46: 4.30 P<0.01). ***P<0.001, *P<0.05 vs. water and sesame oil (Fisher LSD test). […] Results are expressed as mean±SEM (n=6-14). One-way ANOVA: Treatment (F5, 46: 3.57 P<0.01). **P<0.01, *P<0.05 vs. water and sesame oil (Fisher LSD test). […] One-way ANOVA: Treatment (F5, 46: 3.57 P<0.01). **P<0.01, *P<0.05 vs. water and sesame oil (Fisher LSD test).
Drugs were administered following the traditional dosing regimen used in the FST consisting of three injections: 24, 5, 1 h before testing.
The FST is currently the most widely used animal model for assessing depression related behavior and antidepressant drug activity in rodents (Cryan et al., Neubiorev. 2005). Rats are placed in an inescapable cylinder of water where they develop an immobile posture believed to reflect a “depressive”-like state. The time rats spend immobile is decreased by drugs exerting antidepressant activity.
Additional behaviors can be detected in the FST; namely, climbing and swimming. It has been shown that swimming behavior is sensitive to SSRIs such as fluoxetine whereas climbing is sensitive to norepinephrine re-uptake inhibitors (NRI) such as desipramine.

CCI traumatized animals = assay: Water Exploration Test (WET) after Controlled Cortical Impact (CCI); format: in vivo, rat; parameters: key to Time spent in CZ, Conclusion vs. CCI-D0: ↓ ↓ ↓: decrease of analyzed variable with p < 0.001; ?: stability of analyzed variable; ↑: increase in analyzed variable with p < 0.05; key to Entry number in CZ, Conclusion vs. CCI-D0: ↓: decrease of analyzed variable with p < 0.05; ?: stability of analyzed variable; ↑ ↑: increase in analyzed variable with p < 0.01; conditions: for Entry number in CZ, Mean / Time spent in CZ, Mean: C-D0 = 100
Procedure: Male Sprague-Dawley rats of […] are used. There were 12 animals per group for all in vivo experiments (WET, MRI) except for the CHI injury which requested 17 animals per group because of the post-trauma mortality rate. Each group was then split in two subgroups of 6 individuals for all post-mortem analysis (biochemical, histological and immunohistological analysis.
CCI was performed with an electromagnetic impact device as described (MyNeurolab, St. Louis, Mo.; Brody et al. 2007). Anesthesized rats were subjected to a single right lateral CCI, with the following parameters: impact centered 4.0 mm anterior to lambda and 4.5 mm […] of midline, within the craniotomy of the animal. The impact was set at a velocity of 4 m/s with a sustained depression of 200 ms, using a 5.0 mm tip.
The […] is a rat, the more time it will spend “floating” (null velocity) in the central zone (see Fares-2009).
More precisely, a circular tank (180 cm diameter, 60 cm high) is filled with water maintained at 27° C. to a depth of 40 cm. The water is made opaque by adding black gouache, allowing the VideoTrack system (ViewPoint) to detect the white-coloured rat. This tank is divided into 4 identical quadrants (6,358 cm2 each) using two 180 cm long opaque plastic separators. In each quadrant, one rat is introduced with its head facing the corner between the separator and the tank's wall. It is noteworthy to emphasize that 4 rats can be tested simultaneously using the 4 quadrants. Using the VideoTrack system, we draw two virtual areas: a large one delineates the whole quadrant in which the rat is placed, the so-called Full Quadrant (FQ) and a small one that delineates a central zone (CZ). The CZ, having the same shape as the FQ, measures 2,921 cm2, and is considered to be anxiogenic for animals. Thus, the distance, the number of entries, the time spent, and the velocity profile in the CZ are measured to assess anxiety-like behaviour. In addition, the total distance traveled in the FQ represents an indicator of motor activity. The duration of each trial is 5 minutes.
The effect of 3-methoxy-PREG (MAP4343) on anxiety induced by trauma was analyzed using the WET test.

GAP43 = assay: Western blot of GAP43 in cortex and hippocampus after CCI; format: in vivo, rat; conditions: first injection 2 h post-trauma, day 35, injured cortex (20 mg/kg only), hippocampus and non-injured cortex (both doses)
Procedure: FIG. 23: GAP43 expression, 35 days after TBI, in the left-uninjured and right-injured hemispheres (A: cortex and B: hippocampus) of CCI-injured animals, receiving either vehicle (D0) or MAP4343 (D1: 10 mg/kg and D2: 20 mg/kg), 2 h after injury.
Samples were analyzed by Western-blot at day 35 post-trauma (D35) to evaluate the effects of MAP4343 on: MAP2 (the target of MAP4343 and a modulator of microtubule function), the post-synaptic markers PSD95 and spinophilin, the pre-synaptic marker synaptophysin, and the axonal growth/integrity marker GAP43.
Western blot was performed on cortex and hippocampus of TBI-injured animals receiving the first injection of MAP4343 (at 10 mg/kg or 20 mg/kg) or vehicle (sesame oil) 2 h after injury.
The expression level of various neuronal brain markers of plasticity was measured at day 35 post-trauma by western-blots in the cortex and hippocampus of left uninjured and right injured cerebral hemispheres of CCI traumatized animals receiving either vehicle (sesame oil, CCI-D0) or 3-methoxy-PREG (MAP4343) at 10 mg/kg (CCI-D1) or 20 mg/kg (CCI-D2), with first MAP4343 injection 2 h post-trauma.

[3] = Day 7, CCI-D1, 10 mg/kg from 24 hours post-trauma
[4] = Day 7, CCI-D2, 20 mg/kg from 24 hours post-trauma
[5] = Day 27, CCI-D1, 10 mg/kg from 24 hours post-trauma
[6] = Day 27, CCI-D2, 20 mg/kg from 24 hours post-trauma

SMILES: CO[C@H]1CC[C@@]2(C)C(=CC[C@H]3[C@@H]4CC[C@H](C(C)=O)[C@@]4(C)CC[C@@H]32)C1 [3-methoxy-PREG, 3β-methoxy-pregna-5-ene-20-one]
- association of MAP2 to the microtubules [1]: stimulation
- rat climbing behavior in the FST [2]: not changed
- rat immobility in the FST [2]: significantly decreased
- rat swimming in the FST [2]: significantly increased
- Entry number in CZ, Mean (CCI traumatized animals; [3]): 64
- Time spent in CZ, Mean (CCI traumatized animals; [3]): 48
- Time spent in CZ, Conclusion vs. CCI-D0 (CCI traumatized animals; Day 7, CCI-D2, 20 mg/kg): ↑
- Entry number in CZ, Mean (CCI traumatized animals; [4]): 73
- Time spent in CZ, Mean (CCI traumatized animals; [4]): 66
- Entry number in CZ, Mean (CCI traumatized animals; [5]): 79
- Time spent in CZ, Mean (CCI traumatized animals; [5]): 86
- Entry number in CZ, Conclusion vs. CCI-D0 (CCI traumatized animals; Day 27, CCI-D2, 20 mg/kg): ↑ ↑
- Time spent in CZ, Conclusion vs. CCI-D0 (CCI traumatized animals; Day 27, CCI-D2, 20 mg/kg): ↑
- Entry number in CZ, Mean (CCI traumatized animals; [6]): 114
- Time spent in CZ, Mean (CCI traumatized animals; [6]): 95
- anxiety induced by CCI trauma (CCI traumatized animals; as early as day 7, in particular at 20 mg/kg (D2)): alleviated
- GAP-43 expression (GAP43): increased GAP-43 expression
